Test results published in patent publication US10047036B2, “Method for the synthesis of hydroxy-triglycerides and uses thereof for the prevention and treatment of diseases” (UNIVERSITAT DE LES ILLES BALEARS, priority 2014, dated 2018).

What was measured:
systolic blood pressure = systolic blood pressure in spontaneously hypertensive rats; assay type: in vivo; conditions: SHR rats; for Δ SP, change in systolic blood pressure: 14 days, 600 mg/kg every 12 hours, basal 216 mmHg; for drops in systolic blood pressure: 14-day treatments with 600 mg/kg
From the text: Metabolic and cardiovascular pathologies are closely related. The overfeeding which characterises our society not only gives rise to problems of obesity and excess weight. It is also linked to the appearance of diabetes, dyslipidaemia, hypertension, strokes, arteriosclerosis, ictus, etc. All of these pathologies increase the risk of premature death and can even cause death. In this sense, certain natural oils show a certain efficacy against this type of pathologies, but their power is limited. In contrast, the molecules of the invention have an important effect against the development of this type of pathologies. To be able to study the effects of the compounds of the invention for the prevention and treatment of metabolic and cardiovascular pathologies, hypertensive rats were used (SHR strain, spontaneously hypertensive rats). These rats present obesity, high blood pressure, dyslipidaemia (hypercholesterolemia and hypertriglyceridemia), diabetes, metabolic syndrome and other related health problems. Hypertensive rats of the SHR strain (spontaneously hypertensive rats) with an approximate weight of 300 grams were treated with TGM1 during 9 days (400 mg/kg, every 12 h, p.o.). Systolic pressure was measured before starting the treatment (basal) and 9 days later. In these animals with a metabolic/cardiovascular pathology, this treatment with TGM1 produced drops in blood pressure of approximately 25 mmHg, while the 14-day treatments with 600 mg/kg of TGM1 induced even greater drops in systolic blood pressure of up to 37 mmHg for TGM1 and up to 52 mmHg for TGM6 (FIG. 4 and Table 3). […] [table]

[1] = test system: MRC5 (non-tumour) human fibroblasts; assay: growth inhibition of normal non-tumour cells, 72 h incubation; assay type: cell-based; conditions: 72 hours of incubation
Method: On the one hand, human cells of different types of cancer were used. The cells were incubated at 37° C. and 5% of CO2 in air, in culture medium RPMI1640 or DMEM with bovine foetal serum (10%) and other supplements and in the presence or absence of the triglycerides of the present invention at different concentrations during 72 hours. It was possible to observe that the hydroxy-triglycerides of the invention have a high efficacy against the growth of human tumour cells, but not against the growth of normal non-tumour cells (human fibroblasts, MRC5).

[2] = test system: Drosophila melanogaster flies with human Alzheimer's genes (F1); assay: geotaxis (climbing) test in Drosophila melanogaster with Alzheimer's disease; assay type: in vivo; conditions: 100 μM in the food; for Geotaxis: age at which the animals showed a geotaxis of nil: no fly passes the line
From the text: (§1) To investigate the effect of TGMs on the cognitive parameters and aging, another model of Alzheimer's disease in Drosophila melanogaster flies with genetic alterations corresponding to human Alzheimer's was used. The flies used were the first generation (F1) from the crossing of UAS-Aβ human-Tau 2N4R (stock 33771) flies with elav-GAL4^c155 (stock 8760) flies. This model which over-expresses the two proteins typical of Alzheimer's disease is complementary to the model described above and very convenient, as these animals have a life of approximately 1 month and it is possible to add the compounds to the food of the larvae to see the preventative effect thereof throughout their entire life. Also, it allows the effect on aging to be seen and on the life expectancy of these animals (survival over time).
(§2) In this sense, the flies with human Alzheimer's (F1) present a greater cognitive decline in comparison to the “Oregon” fly strain, which are the healthy controls. To evaluate the effect of the hydroxy-triglycerides of the invention, each one of the TGMs (100 μM) was added to the food consumed by these animals. It was possible to observe a positive effect of same in the geotaxis test of climbing (FIG. 7B and Table 11). In this test, the behavioural motor activity was investigated in 25 flies treated with vehicle or one of the TGMs. In this study, the flies were introduced in a glass cylinder with an opening closed with a sponge so air could enter. The flies were taken to the ground (bottom) of the pipe by giving it a sharp blow on a table and their behaviour was timed during 20 seconds. Once this time was over, the number of flies which had passed (crossed) a mark at 15 cm from the bottom was counted (geotaxis test). Usually, more than 90% of healthy young flies passed the line within 20 seconds. However, with aging or with Alzheimer's disease, the behavioural motor activity (percentage of flies which crossed the line) declined, compared to normal flies. In this context, the treatments with the hydroxy-triglycerides of the present invention avoided this cognitive decline associated to Alzheimer's, making the cognitive capacity of the diseased flies similar to that of the healthy flies. […] This positive effect on the cognitive parameters in flies was also shown by other TGMs (Table 11). In fact, in the control group with Alzheimer, no fly crossed the line as of 23 days of age. In this sense, the different hydroxy-triglycerides induced marked increases in the geotaxis test values, with increases in the cognitive values which reached up to 36 days, 50% more in the life of the flies with Alzheimer's (Table 11).

[3] = membrane transition temperatures by X-ray diffraction; assay type: physicochemical; conditions: POPE with 1 mol % of TGM
From the text: As can be appreciated, the presence of TGM induce a very important reduction in the lateral surface tension which is evident from the reduction in the value of the lamellar-to-hexagonal (L-a-HII) transition temperature, which in turn indicates an increase in non-lamellar propensity: Table 12). This effect has an important repercussion on the functionality of the membrane, as this structure allows for the anchoring of certain membrane proteins necessary for cell signalling. For this reason, it can be said that the TGMs have a positive effect on cell signalling because they allow the propagation of cell signals which are lost in association with a wide variety of diseases. This effect shown on the structure of the membrane explains in part why certain oils, such as olive oil or fish oil, have important beneficial properties for the prevention of various diseases, such as cancer, cardiovascular/metabolic diseases and neurological/neurodegenerative diseases. FIG. 6 and Table 12 show clearly how all the TGMs have a similar effect, although with minor nuances in each case. The effect on the solid-liquid transition (Tm) and the lamellar to hexagonal transition (TH) was measured in membranes of palmitoyl-oleoyl phosphatidylethanolamine (POPE) by means of X-ray diffraction in the absence of (POPE Control) or presence of 1 mol % of each one of the indicated TGMs.

[4] = test system: Drosophila melanogaster flies with human Alzheimer's genes (F1); assay: survival of Drosophila melanogaster with Alzheimer's disease; assay type: in vivo; conditions: 100 μM in the food
From the text: as §1, §2

Q: Which “Δ SP, change in systolic blood pressure” value (systolic blood pressure; p.o.) does the source give for `CCC=CCC=CCC=CCCCCCCC(O)C(=O)OCC(COC(=O)C(O)CCCCCCC=CCC=CCC=CCC)OC(=O)C(O)CCCCCCC=CCC=CCC=CCC` (centres unmarked) [TGM3A, 1,2,3-tri(2′-hydroxy-octadec-9′,12′,15′-trienoyl)glycerol] here?
A: Its value is −28 mmHg.

Q: And the IC50 [1]?
A: The IC50 was > 500 µM.

Q: And the Geotaxis: age at which the animals showed a geotaxis of nil [2]?
A: Its Geotaxis: age at which the animals showed a geotaxis of nil is 36 days.

Q: And the “TH, lamellar to hexagonal transition temperature” value (from here on “TH, lamellar”) [3]?
A: The value was 63.0 ± 1.1 °C.

Q: And the “Tm, solid-liquid transition temperature” value [3]?
A: Its value is 23.4 ± 0.2 °C.

Q: What about the “Survival: age at which all the animals in the group died” value (from here on “Survival: age at which all the animals”) [4] of the same compound?
A: Its value is 40 days.

Q: Which “Δ SP, change in systolic blood pressure” value (systolic blood pressure; p.o.) does the source give for `CCCCCC(O)C(=O)OCC(COC(=O)C(O)CCCCC)OC(=O)C(O)CCCCC` (centres unmarked) [TGM0, 1,2,3-tri(2′-hydroxyheptanoyl)glycerol] here?
A: The value was −8 mmHg.

Q: And the IC50 ([1]; Homo sapiens, MRC5)?
A: The IC50 was > 500 µM.

Q: And the Geotaxis: age at which the animals showed a geotaxis of nil [2]?
A: Its Geotaxis: age at which the animals showed a geotaxis of nil is 25 days.

Q: What about the “TH, lamellar” value [3] of the same compound?
A: Its value is 68.3 ± 0.6 °C.

Q: And the “Tm, solid-liquid transition temperature” value [3]?
A: Its value is 22.7 ± 0.2 °C.

Q: What about the “Survival: age at which all the animals” value [4] of the same compound?
A: Its value is 30 days.

Q: With `CCCCCCCCC=CCCCCCCC(O)C(=O)OCC(COC(=O)C(O)CCCCCCC=CCCCCCCCC)OC(=O)C(O)CCCCCCC=CCCCCCCCC` (centres unmarked) [TGM1, 1,2,3-tri(2′-hydroxy-octadec-9′-enoyl)glycerol] as the compound, how does the “drops in systolic blood pressure” value (systolic blood pressure) read?
A: Its value is “up to 37 mmHg”.

Q: And the “drops in blood pressure” value (systolic blood pressure; 9 days, 400 mg/kg every 12 h, p.o.)?
A: Its value is “approximately 25 mmHg”.

Q: What about the “Δ SP, change in systolic blood pressure” value (systolic blood pressure; p.o.) of the same compound?
A: Its value is −37 mmHg.

Q: And the IC50 [1]?
A: The IC50 was > 500 µM.

Q: And the Geotaxis: age at which the animals showed a geotaxis of nil [2]?
A: The Geotaxis: age at which the animals showed a geotaxis of nil was 32 days.

Q: And the “TH, lamellar” value [3]?
A: Its value is 66.0 ± 0.9 °C.

Q: And the “Tm, solid-liquid transition temperature” value [3]?
A: Its value is 23.8 ± 0.3 °C.

Q: What about the “Survival: age at which all the animals” value [4] of the same compound?
A: Its value is 45 days.

Q: Which results are given for `CCC=CCC=CCC=CCC=CCC=CCC=CCC(O)C(=O)OCC(COC(=O)C(O)CC=CCC=CCC=CCC=CCC=CCC=CCC)OC(=O)C(O)CC=CCC=CCC=CCC=CCC=CCC=CCC` (centres unmarked) [TGM6, 1,2,3-tri(2′-hydroxy-docosa-4′,7′,10′,13′,16′,19′-hexanoyl)glycerol]?
A: drops in systolic blood pressure (systolic blood pressure): up to 52 mmHg; Δ SP, change in systolic blood pressure (systolic blood pressure; p.o.): −52 mmHg; IC50 [1]: > 500 µM; cognitive parameters in the climbing test (FIG. 7B) ([2]; compared with normal flies): practically indistinguishable from that observed in normal flies; Geotaxis: age at which the animals showed a geotaxis of nil [2]: 28 days; TH, lamellar to hexagonal transition temperature [3]: 64.9 ± 0.9 °C; Tm, solid-liquid transition temperature [3]: 23.3 ± 0.2 °C; Survival: age at which all the animals in the group died [4]: 39 days

Q: With `CCCCCC=CCC=CCC=CCC=CCCC(O)C(=O)OCC(COC(=O)C(O)CCC=CCC=CCC=CCC=CCCCCC)OC(=O)C(O)CCC=CCC=CCC=CCC=CCCCCC` (centres unmarked) [TGM4, 1,2,3-tri(2′-hydroxy-eicosa-5′,8′,11′,14′-tetraenoyl)glycerol] as the compound, how does the “Δ SP, change in systolic blood pressure” value (systolic blood pressure; p.o.) read?
A: Its value is −43 mmHg.

Q: What about the IC50 [1] of the same compound?
A: The IC50 was > 500 µM.

Q: What about the Geotaxis: age at which the animals showed a geotaxis of nil [2] of the same compound?
A: Its Geotaxis: age at which the animals showed a geotaxis of nil is 35 days.

Q: What about the “TH, lamellar” value [3] of the same compound?
A: The value was 64.6 ± 0.8 °C.

Q: What about the “Tm, solid-liquid transition temperature” value [3] of the same compound?
A: The value was 23.2 ± 0.2 °C.

Q: And the “Survival: age at which all the animals” value [4]?
A: Its value is 44 days.

Q: For `CCCCCC=CCC=CCC=CCCCC(O)C(=O)OCC(COC(=O)C(O)CCCC=CCC=CCC=CCCCCC)OC(=O)C(O)CCCC=CCC=CCC=CCCCCC` (centres unmarked) [TGM3G, 1,2,3-tri(2′-hydroxy-octadec-6′,9′,12′-trienoyl)glycerol], which “Δ SP, change in systolic blood pressure” value (systolic blood pressure; p.o.) is on record?
A: Its value is −21 mmHg.

Q: What about the IC50 [1] of the same compound?
A: Its IC50 is > 500 µM.

Q: What about the Geotaxis: age at which the animals showed a geotaxis of nil [2] of the same compound?
A: The Geotaxis: age at which the animals showed a geotaxis of nil was 29 days.

Q: And the “TH, lamellar” value [3]?
A: The value was 63.6 ± 1.1 °C.

Q: And the “Tm, solid-liquid transition temperature” value [3]?
A: Its value is 23.3 ± 0.3 °C.

Q: And the “Survival: age at which all the animals” value [4]?
A: The value was 31 days.

Q: With `CCC=CCC=CCC=CCC=CCC=CCCC(O)C(=O)OCC(COC(=O)C(O)CCC=CCC=CCC=CCC=CCC=CCC)OC(=O)C(O)CCC=CCC=CCC=CCC=CCC=CCC` (centres unmarked) [TGM5, 1,2,3-tri(2′-hydroxy-eicosa-5′,8′,11′,14′,17′-pentaenoyl)glycerol] as the compound, how does the “Δ SP, change in systolic blood pressure” value (systolic blood pressure; p.o.) read?
A: The value was −40 mmHg.

Q: And the IC50 [1]?
A: The IC50 was > 500 µM.

Q: And the Geotaxis: age at which the animals showed a geotaxis of nil [2]?
A: Its Geotaxis: age at which the animals showed a geotaxis of nil is 26 days.

Q: What about the “Survival: age at which all the animals” value [4] of the same compound?
A: Its value is 31 days.

Q: Which “Δ SP, change in systolic blood pressure” value (systolic blood pressure; p.o.) does the source give for `CCCCCC=CCC=CCCCCCCC(O)C(=O)OCC(COC(=O)C(O)CCCCCCC=CCC=CCCCCC)OC(=O)C(O)CCCCCCC=CCC=CCCCCC` (centres unmarked) [TGM2, 1,2,3-tri(2′-hydroxy-octadec-9′,12′-dienoyl)glycerol] here?
A: The value was −41 mmHg.

Q: And the IC50 [1]?
A: Its IC50 is > 500 µM.

Q: And the Geotaxis: age at which the animals showed a geotaxis of nil [2]?
A: The Geotaxis: age at which the animals showed a geotaxis of nil was 29 days.

Q: What about the “TH, lamellar” value [3] of the same compound?
A: Its value is 62.0 ± 1.1 °C.

Q: And the “Tm, solid-liquid transition temperature” value [3]?
A: Its value is 23.6 ± 0.3 °C.

Q: What about the “Survival: age at which all the animals” value [4] of the same compound?
A: The value was 33 days.
